{"source": "patent US20220096450A1", "about": "“Compounds and Methods for Treating or Preventing Heart Failure” (DREXEL UNIVERSITY, priority 2019, published 2022)", "key": {"[1]": {"experiment": "Cell Counting Kit-8 cytotoxicity assay in H9C2 cells", "format": "cell-based", "settings": "rat", "method": "(§1) H9C2 cells, a rat ventricular cardiomyoblast cell line were obtained from ATCC (CRL-1446) and maintained in Dulbecco's modified Eagle's medium (DMEM) containing 10% FBS and 1× GlutaMAX. For hypertrophy studies, the cells were plated onto 4-well glass chamber slides precoated with poly-D-lysine. The maintenance medium was aspirated after 24 h and the cells were serum-starved overnight in DMEM containing 1% FBS and 1× GlutaMAX and then incubated for 48 h in fresh serum-starved medium containing isoproterenol, as indicated.\n(§2) Cytotoxicity assays were conducted under the same conditions used for hypertrophy assays with NVCMs or H9C2 cells, as described elsewhere herein."}, "[2]": {"experiment": "Cell Counting Kit-8 cytotoxicity assay in NVCMs", "format": "cell-based", "settings": "Sprague-Dawley, rat, rat neonatal ventricular cardiomyocytes (NVCMs)", "excerpt": "Rat neonatal ventricular cardiomyocytes (NVCMs) were isolated from the hearts of 1-2 day old Sprague-Dawley rats (Charles River) in 50-90% yield (70-95% viability) by following the protocol described by Golden et al. (Golden et al., 2012, in Cardiovascular Development. Methods in Molecular Biology (Methods and Protocols), vol 843 (Peng, X., Antonyak, M., Eds.) pp 205-214, Springer, Totowa, N.J.).\nNVCMs are maintained in Dulbecco's modified Eagle's medium (DMEM:F12) containing 20% fetal bovine serum (FBS), 5% horse serum, 1× GlutaMAX, and 2 μg/mL insulin. For hypertrophy studies, cells were plated onto 4-well glass chamber slides, precoated with poly-D-lysine and laminin. The maintenance medium was aspirated after incubation for 72 h. The cells were serum-starved overnight in DMEM:F12 containing 1% FBS, 1× GlutaMAX, and 2 ug/mL insulin and then incubated for 24 h in fresh serum-starved medium containing angiotensin II, as indicated.\nas §2"}, "[3]": {"system": "mitochondrial CoQ-dependent respiratory complex I", "experiment": "Biochemical selectivity assay, respiratory complex I", "parameters": "species or system mouse", "settings": "highest concentration tested 11 μM", "method": "(§3) Inhibitor selectivity was assessed using mouse muscle homogenate preparations that contain disrupted mitochondrial membranes, a feature that makes substrates accessible to each of the membrane-bound respiratory complexes. Spectrophotometric assays for each complex are conducted in the presence or absence of a target-specific inhibitor (FIG. 9) to correct for nonspecific substrate oxidation, as previously described (Spinazzi et al., 2012, Nature Protocols 7: 1235-1246). Thus, the activity of complex I is determined by monitoring the oxidation of NADH in the absence or presence of rotenone. Complex III activity is measured based on the rate of cytochrome C reduction observed in the presence or absence of antimycin A. The reaction catalyzed by complex II produces decylubiquinol (decylCoQH2), which rapidly reduces DCIP."}, "[4]": {"system": "mitochondrial CoQ-dependent respiratory complex III", "experiment": "Biochemical selectivity assay, respiratory complex III", "parameters": "species or system mouse", "settings": "highest concentration tested 11 μM", "method": "as §3"}, "H9C2 cells": {"system": "H9C2 cells", "experiment": "Isoproterenol-induced hypertrophy assay in H9C2 cells", "format": "cell-based, rat", "settings": "isoproterenol 100 μM 24 h, then 50 μM 24 h; 10.5 μM FC9402", "method": "as §1, with “indicated. […] Images were acquired using a FV3000 Olympus Confocal Microscope and analyzed using ImageJ. Cell surface area was determined by encircling the outer membrane of 30-50 cells per field in 6-10 field images for a total of 500 cells per condition.” for “indicated.”"}}}
{"compound": "COc1nc(-c2ncccc2C)cc(-c2ccc(N)cc2)c1C#N", "note": "[FC9402, 4-(4-aminophenyl)-2-methoxy-6-(3-methylpyridin-2-yl)pyridine-3-carbonitrile]", "values": [{"measurement": "CC50 at 48 h", "setting": "[1]", "result": "56 ± 10", "unit": "µM"}, {"measurement": "CC50 at 24 h", "setting": "[2]", "result": "27.9 ± 2.6", "unit": "µM"}, {"measurement": "inhibition of respiratory complex I", "setting": "[3]", "result": "did not inhibit"}, {"measurement": "inhibition of respiratory complex III", "setting": "[4]", "result": "did not inhibit"}, {"measurement": "hypertrophic response (cell surface area)", "setting": "H9C2 cells", "result": "mitigates the hypertrophic response"}]}
